Assay results as given in EPA's CvTdb concentration-time database.
Values joined by “and” are separate entries in the source; they are usually repeats but may differ in a detail not shown here. Equal values may be shown once. Blank lines part the entries; values can stand above or below the compound they belong to.

What was measured:
Experiment in all cases: concentration in blood after dosing
[1] = system: rat; conditions: dosed: halothane, 50000 ppm, dermal, duration: 4 hr, male, F344
[2] = system: rat; conditions: 50000 ppm, dermal, duration: 4 hr, male, F344
[3] = system: rat; conditions: dosed: halothane, 50000 ppm, dermal, duration: 4 hr, male, F344; remark: listed apart in the source
[4] = system: rat; conditions: dosed: halothane, 50000 ppm, dermal, duration: 4 hr, male, F344; remark: listed apart in the source
[5] = system: rat; conditions: dosed: isoflurane, 50000 ppm, dermal, duration: 4 hr, male, F344
[6] = system: rat; conditions: dosed: isoflurane, 50000 ppm, dermal, duration: 4 hr, male, F344; remark: listed apart in the source
[7] = system: rat; conditions: dosed: isoflurane, 50000 ppm, dermal, duration: 4 hr, male, F344; remark: listed apart in the source
[8] = system: rat; conditions: dosed: isoflurane, 50000 ppm, dermal, duration: 4 hr, male, F344; remark: listed apart in the source
[9] = system: rat; conditions: dosed: isoflurane, 50000 ppm, dermal, duration: 4 hr, male, F344; remark: listed apart in the source

concentration in blood ([1]; 0.5 h): 3.13 µg/mL
concentration in blood ([1]; 1 h): 4.93 µg/mL
concentration in blood ([1]; 2 h): 5.21 µg/mL
concentration in blood ([1]; 3 h): 5.41 µg/mL
concentration in blood ([1]; 4 h): 7.71 µg/mL
concentration in blood ([2]; 0.5 h, dosed: halothane): 0.623 µg/mL
concentration in blood ([2]; 1 h, dosed: halothane): 2.04 µg/mL
concentration in blood ([2]; 2 h, dosed: halothane): 2.11 µg/mL
concentration in blood ([2]; 3 h, dosed: halothane): 2.72 µg/mL
concentration in blood ([2]; 4 h, dosed: halothane): 2.19 µg/mL
concentration in blood ([3]; 0.5 h): 1.3 µg/mL
concentration in blood ([3]; 2 h): 3.22 µg/mL
concentration in blood ([3]; 3 h): 3.02 µg/mL
concentration in blood ([3]; 4 h): 2.52 µg/mL
concentration in blood ([4]; 0.5 h): 1.42 µg/mL
concentration in blood ([4]; 1 h): 2.31 µg/mL
concentration in blood ([4]; 2 h): 2.6 µg/mL
concentration in blood ([4]; 3 h): 3.36 µg/mL
concentration in blood ([4]; 4 h): 2.72 µg/mL
Compound: FC(F)(F)C(Cl)Br (stereo not given) [halothane]

concentration in blood ([5]; 2 h): 1.12 µg/mL
concentration in blood ([5]; 3 h): 1.52 µg/mL
concentration in blood ([5]; 4 h): 1.21 µg/mL
concentration in blood ([6]; 0.5 h): 0.0196 µg/mL
concentration in blood ([6]; 2 h): 1.73 µg/mL
concentration in blood ([6]; 3 h): 2.03 µg/mL
concentration in blood ([6]; 4 h): 0.824 µg/mL
concentration in blood ([7]; 0.5 h): 0.51 µg/mL
concentration in blood ([7]; 1 h): 0.699 µg/mL
concentration in blood ([7]; 2 h): 1.61 µg/mL
concentration in blood ([7]; 3 h): 1.72 µg/mL
concentration in blood ([7]; 4 h): 0.915 µg/mL
concentration in blood ([8]; 0.5 h): 0.418 µg/mL
concentration in blood ([8]; 1 h): 1.01 µg/mL
concentration in blood ([8]; 3 h): 1.61 µg/mL
concentration in blood ([8]; 4 h): 0.516 µg/mL
concentration in blood ([9]; 0.5 h): 1.12 µg/mL
concentration in blood ([9]; 1 h): 2.5 µg/mL
concentration in blood ([9]; 2 h): 3.61 µg/mL
concentration in blood ([9]; 3 h): 3.22 µg/mL
concentration in blood ([9]; 4 h): 2.52 µg/mL
concentration in blood ([2]; 0.5 h, dosed: isoflurane): 0.614 µg/mL
concentration in blood ([2]; 1 h, dosed: isoflurane): 0.81 µg/mL and 1.52 µg/mL
concentration in blood ([2]; 2 h, dosed: isoflurane): 1.61 µg/mL and 1.42 µg/mL
concentration in blood ([2]; 3 h, dosed: isoflurane): 1.52 µg/mL
concentration in blood ([2]; 4 h, dosed: isoflurane): 0.706 µg/mL
Compound: FC(F)OC(Cl)C(F)(F)F (stereo not given) [isoflurane]
